The nature of series [1]: MTS cytotoxicity assay, overnight, HepG2. The series is classed as cell-based. As to conditions: human, HepG2 cells, concentration range 100–0.2 µM. Here is the method: (§1) Adherent liver hepatocellular carcinoma cell line HepG2 (ATCC, HB-8065) and human acute monocytic leukemia cell line in suspension THP-1 (ATCC, TIB-202) were purchased from American Type Culture Collection (ATCC, Manassas, VA, USA). Cell lines were maintained in complete DMEM/F12 medium (Sigma, D8437, St. Louis, MO, USA) and complete RPMI1640 (Sigma, R7388, St. Louis, MO, USA) respectively, supplemented with 10% Fetal Calf Serum (FCS, Sigma, F7524, St. Louis, MO, USA) at 37 °C in 5% CO2 atmosphere.
(§2) A cytotoxicity assay was performed using MTS CellTiter 96 AQueous One Solution Cell Proliferation Assay (Promega, G3580, Madison, WI, USA). Double dilutions of compounds were prepared in the concentration range of 100–0.2 µM within microplate wells. In each well, 5 × 10^4 cells were added and the plates were incubated overnight at 37 °C in 5% CO2 atmosphere. Following this, 10 µL of MTS (3-(4,5-dimethylthiazol-2-yl)-5-(3-carboxymethoxyphenyl)-2-(4-sulfophenyl)-2H -tetrazolium) reagent was dispensed per well and the plates were incubated for 1–6 h at 37 °C in 5% CO2 atmosphere. Control wells consisted of media only (blank) or cells with 1% DMSO added (control). The absorbance was recorded at 490 nm using a Wallac Victor2 microplate reader (PerkinElmer, Waltham, MA, USA). Results were analyzed in GraphPad Prism software (GraphPad Software, San Diego, CA, USA).
(Tetrazolium assays rely on reduction of a dye to a coloured formazan, in cell work by metabolically active cells.)

The nature of series [2]: MTS cytotoxicity assay, overnight, THP-1. The settings on record: human, THP-1 cells, overnight, concentration range 100–0.2 µM. The series is classed as cell-based, human. As for the experimental part:
as §1, §2

The nature of series [3]: DPPH• radical scavenging assay. The settings on record: 100 µM DPPH•, 30 min, room temperature, dark; read-out: DPPH● radical scavenging (RS) activity IC50. As for the experimental part: Vitamin C (Acros Organics, Geel, Belgium) was used as a standard antioxidant control and was prepared in the same way as tested compounds. Dilutions of tested compounds and vitamin C were prepared in a final concentration range of 1 mM–0.01 μM. One milliliter of compound solution was added to 1 mL of freshly prepared DPPH• solution (3.9 mg/50 mL ethanol; final concentration of 100 µM) and the reaction mixture was incubated in the dark at room temperature for 30 min. Absorbance was recorded at 540 nm using a 96-well Wallac Victor2 plate reader. Neutralization of DPPH• radical by a compound was calculated according to the following formula:RS activity (%) = [(A0 − A1)/A0] × 100(1) where A0/A1 is the control/sample absorbance. The results were averages of three measurements. The IC50 value was calculated using GraphPad Prism software (GraphPad Software, San Diego, CA, USA).

Another series concerns THP-1 cells. The settings on record: cited from earlier work.
A further series deals with THP-1. Nature of the series: MTS cytotoxicity assay, overnight, THP-1. The series is classed as cell-based, human. As to conditions: up to 100 μM overnight. Here is the method: as §1, §2
In series [4] the test system is THP-1 cells treated by H2O2. The series is described as follows: Growth of THP-1 cells pre- or post-treated with H2O2, trypan blue exclusion assay. The series is classed as cell-based, human. The settings on record: for Effect against cytotoxic / pro-oxidative activity of H2O2 on THP-1 cells: compound at DPPH• IC50 concentration, before or after 5 mM H2O2; for Recovery of THP-1 cells after initial damage: from the 48 h point, H2O2 plus compound. Here is the method: The substances without cytotoxic effects and with RS activity were tested for antioxidant potential at the cellular level using THP-1 cells treated by H2O2 [28]. The cells were exposed to the IC50 concentrations of the compounds determined by the DPPH• assay. Compounds were applied 30 min either before or after exposure to 5 mM of H2O2, which is equivalent to the cytotoxic ED50 dose of H2O2 for the THP-1 cells. The cell growth was analyzed every 24 h, via the trypan blue exclusion assay using a Bürker-Türk hemocytometer (Brand GMBH + CO KG, Wertheim, Germany), during a 4-day period. All assays were carried out in triplicates. The comparison of mean values was done by the two-tailed Student’s t-test.

Details of series [5]: method as in doi:10.1627/jpi.51.298. As to conditions: oxygen atmosphere, 50 °C, compared with para-coumaric acid fragment; cited from earlier work.
A further series deals with aldose reductase ALR2. The arrangement: method as in doi:10.1007/s00706-018-2146-6. As to conditions: cited from earlier work.
Series [6] deals with cell lines A549, PC3, MCF-7, HT-29 and WRL68. The arrangement: method as in PMID 22634834. The settings on record: cited from earlier work.

Molecules are shown by their SMILES.

The IC50 is the concentration that gives 50% inhibition.

With `CC(C)c1cnc(C(=O)/C=C/c2ccc(O)cc2)cn1` [Compound 3c], the values for the IC50 in series [1], in [2] and in series [3] were > 100 µM, 78 µM and > 1 mM, respectively.

As for `CCCc1cnc(C(=O)/C=C/c2ccccc2O)cn1` [Compound 1b], the IC50 in [1] and in series [2] was > 100 µM throughout.

With `CCCc1cnc(C(=O)/C=C/c2ccc(O)cc2)cn1` [Compound 3b], the IC50 in series [1] was > 100 µM; in [2], 94 µM.

As to `CC(C)c1cnc(C(=O)/C=C/c2cccc(O)c2)cn1` [Compound 2c], the IC50 in series [1] was 97 µM; in series [2] it was 83 µM; in series [3], > 1 mM.

Take `CC(C)(C)c1cnc(C(=O)/C=C/c2cccc(O)c2)cn1` [Compound 2f]: the IC50 in [1] and in series [2] was > 100 µM in each case.

Consider `CC(C)Cc1cnc(C(=O)/C=C/c2ccccc2O)cn1` [Compound 1e], for which the IC50 in [1] was > 100 µM; in [2] it was 94 µM.

Turning to `CC(C)(C)c1cnc(C(=O)/C=C/c2ccc(O)cc2)cn1` [Compound 3f], the IC50 in series [1] and in [2] was > 100 µM each time.

On to `CCCCc1cnc(C(=O)/C=C/c2ccccc2O)cn1` [Compound 1d], for which the figures for the IC50 in [1], in series [2] and in series [3] were 86 µM, 27 µM and > 1 mM, respectively.

Take `CC(C)Cc1cnc(C(=O)/C=C/c2cccc(O)c2)cn1` [Compound 2e]: the IC50 in series [1] and in [2] was > 100 µM throughout.

In the case of `CC(C)(C)c1cnc(C(=O)/C=C/c2ccccc2O)cn1` [Compound 1f], the IC50 in series [1] and in [2] was > 100 µM throughout.

Take `OO` [Compound H2O2, hydrogen peroxide]: in the series with THP-1 cells, the “Cytotoxic ED50 dose for THP-1 cells” value is reported as 5 mM.

For `COc1cc(/C=C/C(=O)c2cnccn2)ccc1O` [Compound 4a], the IC50 in [1] is > 100 µM; in [2], > 100 µM; in series [3], 0.186 mM. Besides, in the series with THP-1, the “Cytotoxicity on THP-1 cells, in words” value was “non-toxic”. Further, in [4], the “Effect against cytotoxic / pro-oxidative activity of H2O2 on THP-1 cells” value is reported as “lowest effect”. Besides, the “RS activity in styrene auto-oxidation” value in series [5] is listed as “significant RS activity”.

With `O=C(/C=C/c1cccc(O)c1)c1cnccn1` [Compound 2a], the values for the half-maximal inhibitory concentration (IC50) in [1], in [2] and in series [3] were 100 µM, 50 µM and > 1 mM, respectively. For the same compound, the ALR2 inhibition activity entry in the series on aldose reductase ALR2 is reported as “moderate ALR2 inhibition activity”.

For `CC(C)Cc1cnc(C(=O)/C=C/c2ccc(O)cc2)cn1` [Compound 3e], the IC50 in series [1] and in series [2] was > 100 µM throughout.

With `COc1cc(/C=C/C(=O)c2ccccc2)ccc1O` [Compound 4], the IC50 in series [1] and in series [2] was > 100 µM each time.

On to `COc1cc(/C=C/C(=O)c2cnc(C(C)(C)C)cn2)ccc1O` [Compound 4f], for which the IC50 in series [1] is > 100 µM; in [2], 36 µM.

`COc1cc(/C=C/C(=O)c2cnc(C(C)C)cn2)ccc1O` [Compound 4c]: the IC50 is > 100 µM in series [1], > 100 µM in [2] and 0.039 mM in series [3]. The “Cytotoxicity on THP-1 cells, in words” value in the series on THP-1 was “non-toxic”. Moreover, the “Attenuation of H2O2 effect on THP-1 cells, compound added before H2O2” value in series [4] (compound at DPPH• IC50 concentration 30 min before 5 mM H2O2, 4 days) is “most efficient reduction of cytotoxic effect of H2O2”. Moreover, the “Effect against cytotoxic / pro-oxidative activity of H2O2 on THP-1 cells” value in series [4] was “greater attenuation of H2O2 effects”. Further, in [4], the “Recovery of THP-1 cells after initial damage” value is given as “considerably greater”.

Turning to `CC(C)c1cnc(C(=O)/C=C/c2ccccc2O)cn1` [Compound 1c], the IC50 in series [1] was > 100 µM; in series [2], 96 µM; in [3] it was > 1 mM.

Consider `O=C(/C=C/c1ccccc1O)c1ccccc1` [Compound 1], for which the figures for the IC50 in series [1], in [2] and in series [3] were > 100 µM, 70 µM and > 1 mM, respectively.

Take `CCCCc1cnc(C(=O)/C=C/c2ccc(O)cc2)cn1` [Compound 3d]: the IC50 was > 100 µM in series [1], 83 µM in [2] and > 1 mM in series [3].

As for `O=C(/C=C/c1ccc(O)cc1)c1ccccc1` [Compound 3], the results for the IC50 in series [1], in series [2] and in [3] were > 100 µM, > 100 µM and > 1 mM, respectively. Moreover, in the series with aldose reductase ALR2, the ALR2 inhibition activity result is given as “comparable ALR2 inhibition”. Further, the “Cytotoxicity against A549, PC3, MCF-7, HT-29 and WRL68” value in [6] was “significant cytotoxicity”.

Take `COc1cc(/C=C/C(=O)c2cnc(CC(C)C)cn2)ccc1O` [Compound 4e]: the IC50 is > 100 µM in series [1], > 100 µM in [2] and 0.046 mM in [3]. Further, the “Cytotoxicity on THP-1 cells, in words” value in the series on THP-1 is “non-toxic”. Further, in series [4] (compound alone at its DPPH• IC50 concentration, 96 h, Figure 2a), the “Effect of the pure substance on the growth of THP-1 cells” value was “no considerable effects”. Further, the “Effect against cytotoxic / pro-oxidative activity of H2O2 on THP-1 cells” value in [4] is listed as “greater attenuation of H2O2 effects”. In addition, the “Recovery of THP-1 cells after initial damage” value in series [4] is “considerably greater”.

Take `CCCc1cnc(C(=O)/C=C/c2cccc(O)c2)cn1` [Compound 2b]: the values for the IC50 in [1] and in series [2] were > 100 µM and 48 µM, respectively.

In the case of `O=C(/C=C/c1cccc(O)c1)c1ccccc1` [Compound 2], the IC50 is > 100 µM in series [1], 51 µM in [2] and > 1 mM in series [3].

As for `O=C(/C=C/c1ccc(O)cc1)c1cnccn1` [Compound 3a], the IC50 in series [1] was > 100 µM; in series [2], 97 µM; in series [3], > 1 mM. The ALR2 inhibition activity result with aldose reductase ALR2 was “moderate ALR2 inhibition activity”. Further, the “RS activity in styrene auto-oxidation” value in series [5] is “significant RS activity”.

In the case of `O=C(/C=C/c1ccccc1O)c1cnccn1` [Compound 1a], the IC50 in [1] was > 100 µM; in series [2], 40 µM; in series [3] it was > 1 mM. Besides, in [5], the “RS activity in styrene auto-oxidation” value is given as “significant RS activity”.

On to `CCCCc1cnc(C(=O)/C=C/c2cccc(O)c2)cn1` [Compound 2d], for which the IC50 in [1] is > 100 µM; in series [2], 67 µM; in series [3], > 1 mM.

The values are drawn from publication PMC6523444, “Antioxidant Activities of Alkyl Substituted Pyrazine Derivatives of Chalcones—In Vitro and In Silico Study” (Antioxidants, 2019).
